The values that follow come from patent US20250000859A1, “USE OF GCN2 INHIBITORS IN TREATING CANCER” (Alesta Therapeutics BV, priority 2021, published 2025).

For test [1], the system named is HCT116 cells. The test is described as follows: EdU incorporation (Example I). Particulars: HCT116 cells (high ASS1), arginine 6.25-100 μM. Type of test: cell-based. Here is the method: (§1) EdU incorporation levels of cancer cell lines was evaluated following treatment with compound 1, compound 2, compound 3, or vehicle control (0.1% DMSO). Briefly, HT29 and HCT116 cells were seeded at 2,500 cells/well in 96 well plates in 100 μl SILAC DMEM flex media without phenol red, supplemented with 10% dialyzed fetal bovine serum (dFBS), 1 g/l glucose, 2 mM glutamine, 220 μM Lysine, and various concentrations of arginine (6.25 μM, 12.5 μM, 25 μM, and 100 μM). The cells were put in a humidified incubator at 37° C. for 24 hours. The next day compounds were added to the cells at a concentration of […]. At day 3, cells were incubated with 10 μM EdU for 24 hours. The next day EdU positive cells were labeled using the Click-it reaction cocktail per manufacturing protocol using Amplex UltraRed Dye. Fluorescence was measured using a microplate reader using filter sets appropriate for Amplex™ UntraRed reagent (ex 568 nm and em 585 nm).

Test [2] has as its system HT29 cells. Nature of the test: EdU incorporation (Example I). Type of test: cell-based. As to conditions: HT29 cells (low ASS1), arginine 6.25-100 μM. On the procedure:
as §1

Test [3] concerns HCT116 cells. Nature of the test: Growth of colonies/spheroids in soft agar, 5 days (Example G). Type of test: cell-based. As to conditions: Homo sapiens, HCT-116, 120 h, HCT116 cells (ASS1 high), 64 μM arginine, read-out: IC50, growth inhibition. On the procedure:
(§2) The growth of tumor spheroids was evaluated following treatment with Compound 2. Briefly, HT29 cells were seeded at 2,000 cells/well and HCT116 cells were seeded at 1,000 cells/well in ultra-low attachment round bottom 96-well plates in soft agar with 100 μl SILAC DMEM flex media without phenol red, supplemented with 10% Dialyzed fetal bovine serum (dFBS), 1 g/l glucose, 2 mM glutamine, 220 μM Lysine, and 64 μM arginine. Various concentrations of compound 2 (1.37 nM, 4.11 nM, 12.3 nM, 37 nM, 111 nM, 333 nM, and 1000 nM) were added. Plates were placed in a humidified incubator at 37° C. and incubated for 5 days, allowing colonies to form. At endpoint, images were taken by light microscopy (3 images per well) and analyzed using ImageJ software.

Test [4] concerns HT29 cells. The test is described as above. The test is classed as cell-based. As to conditions: HT29 cells (ASS1 low), 64 μM arginine, read-out: IC50, growth inhibition. Here is the method:
as §2

The next test concerns A498 cells. The test is described as follows: Cell viability, ATPlite luminescence (Example H). The test is classed as cell-based. As to conditions: A498 cells (low ASS1). Here is the method:
The viability of cancer cell lines was evaluated following treatment with compound 2. Briefly, 769P and A498 cells were seeded at 100-6,400 cells/well in 96 well plates in 100 μl SILAC DMEM flex media without phenol red, supplemented with 10% dialyzed fetal bovine serum (dFBS), 1 g/l glucose, 2 mM glutamine, 220 μM Lysine, and 64 μM arginine. The cells were put in a humidified incubator at 37° C. for 24 hours. The next day compounds were added at various concentrations. At the end of the experiment, ATPlite 1 Step™ (Perkin Elmer) solution was added to each well and shaken for 2 minutes. After incubation of 10 min in the dark, luminescence was recorded on a Envision Multimode Reader to determine cell viability.

Another test relates to 769-P (ASS1high) cells. The test is described as follows: Relative cell viability, Nuclear-ID Red / Annexin V staining (Example E). Particulars: 16 μM arginine, 4 days. Type of test: cell-based. On the procedure: (§3) To assess the effectiveness of Compound 1 and Compound 2: A^498 (ASS1low) and 769-P (ASS1high) cells were seeded at a density of 2000 cells/well in 96-well plates in RPMI medium with 16 μM arginine, 1 g/L glucose, 2 mM L-glutamine, and 10% FCS and allowed to adhere overnight.
(§4) Cells were then treated with increasing amounts of the indicated compounds for 4 days. Afterward, cell viability was determined by staining the nuclei of the living cells with NUCLEAR-IDR Red DNA stain (Enzo Life Sciences) and the apoptotic/death cells with Annexin V CF488A (Biotium) and scanning the plates with an IncuCyte S3 instrument. Viable cells were classified as Nuclear-ID Red high and Annexin V CF488A low and relative viability was expressed as a percentage of the total number of cells/well.

The subject of a further test is A498 (ASS1low) cells. Described as above. The test is classed as cell-based. As to conditions: 16 μM arginine, 4 days. Here is the method: as §3, §4
For test [5], the system named is Renca, CT26, MC38, B16F10 tumor cells. Nature of the test: In vivo tumor models, tumor volume (Example J). Further details: species or system BALB/c or C57BL/6 mice. As to conditions: for inhibition in tumor volume compared to control: Compound 1: 30 mg/kg p.o. BID, Compound 2: 20 mg/kg p.o. BID, endpoint day 11-20 depending on model. On the procedure: Effect of GCN2 inhibition on in vivo xenograft tumor models of various ASS1 low cancer models was evaluated following treatment with compound 1, compound 2, or vehicle control. Briefly, 1,000,000 tumor cells with a total volume of 100 μl were injected into the rear flank region of 6-8 week old BALB/c or C57BL/6 female mice. The following tumor cell lines were tested: renica (renal adenocarcinoma), CT26 (colon cancer), MC 38 (colon adenocarcinoma), B16F10 (melanoma) When tumors reached a size of approximately […], mice were treated orally (PBS, 10 μl/g, i.p., twice weekly (BIW); Compound 1: 30 mg/kg, 10 μl/g, p.o., twice daily (BID); or Compound 2: 20 mg/kg, 10 μl/g, p.o., BID). Tumor volumes were measured every 3-4 days. Endpoint measurements as presented were measured at day 20 (Renca), day 14 (CT26), day 17 (MC38), and day 11 (B16F10).

In the next test the test system is HT29 spheroids. The test is described as follows: Tumor spheroid growth, live-cell imaging (Example C). Type of test: cell-based. As to conditions: ASS1-low HT29 spheroids, 0-20 μM, up to 120 hours. Here is the method:
(§5) The growth of tumor spheroids was evaluated following treatment of cells with Compound 1, Compound 2. Briefly, HT29 or HCT116 cells were seeded at 5,000 cells/well in ultra-low attachment round-bottom 96-well plates, in 100 μL SILAC DMEM Flex media without phenol red, supplemented with 10% fetal bovine serum (FBS), 1 g/L glucose, 2 mM glutamine, 220 μM lysine, and 64 μM arginine. The plates were centrifuged for 10 minutes at 125×g and put in a humidified incubator at 37° C. for 3 days before the onset of the experiment to allow spheroids to form.
(§6) Three days after seeding, 0-20 μM Compound 1, 0-20 μM Compound 2, or […] vehicle control (0.1% DMSO), were added together with the Nuclear-ID Red DNA Stain (1:100,000; ENZO Life Sciences) to detect live cells. Plates were placed in live-cell imaging and analysis platform (e.g., IncuCyte ZOOM®; 15 Essenbio) set up in a humidified incubator at 37° C. and scanned every 4 hours for up to 120 hours, at 10× magnification, to determine the relative spheroid size and cell death. Experiments were performed in quadruplicate and analyzed using live-cell imaging and analysis software (e.g., IncuCyte ZOOM® 2018A software; Essenbio).

The next test relates to HCT116 spheroids. The test is described as above. The test is classed as cell-based. Particulars: ASS1-high HCT116 spheroids, 0-20 μM, up to 120 hours. On the procedure: as §5, §6

Structures are written as SMILES. Where two headings read alike, the source gives them in different places.

Turning to `Nc1ncc(C#Cc2c(F)ccc(NS(=O)(=O)c3cc(Cl)cc(CO)c3Cl)c2F)cn1` [Compound 3], the EdU labeling entry in the test on HCT116 cells [1] was “have a smaller effect on EdU labeling”; with HT29 cells [2], “cause significantly higher levels of EdU labeling”.
Usually IC50 stands for the concentration needed to halve the response being measured. Turning to `Nc1ncc2cc(-c3c(F)ccc(NS(=O)(=O)c4cc(Cl)ccc4Cl)c3F)ccc2n1` [Compound 2], the IC50 with HCT116 cells [3] came out at 1330 nM; in the test on HT29 cells [4], 51.4 nM; in the test with HT29 cells [4] (Homo sapiens, HT-29, 120 h), 52.4 nM. Moreover, the “cell death (percent viability vs untreated cells)” value in the test with A498 cells was “resulted in a significant level of cell death”. Also, the values for the relative cell viability result in the test on 769-P (ASS1high) cells and in the test with A498 (ASS1low) cells were “did not significantly relative cell viability” and “significantly reduces relative cell viability in a dose-dependent manner”, respectively. The “inhibition in tumor volume compared to control” value in test [5] is “caused a significant inhibition in tumor volume compared to control”. The EdU labeling entry is recorded as “have a smaller effect on EdU labeling” in the test on HCT116 cells [1] and “cause significantly higher levels of EdU labeling” in the test with HT29 cells [2]. For the same compound, the “spheroid growth compared to DMSO-treated spheroids” value in the test with HT29 spheroids is “significantly reduces spheroid growth in a dose-dependent manner”. Also, the spheroid growth result with HCT116 spheroids is given as “does not reduce spheroid growth”.
Consider `COc1ncc(Cl)cc1S(=O)(=O)Nc1ccc(F)c(-c2ccc3nc(N)ncc3c2)c1F` [Compound 1], for which the relative cell viability result in the test with 769-P (ASS1high) cells is “did not significantly relative cell viability”; with A498 (ASS1low) cells, “significantly reduces relative cell viability in a dose-dependent manner”. Besides, the “reduction in tumor volume compared to control” value in test [5] (30 mg/kg p.o. BID, Renca, CT26, MC38, B16F10, FIG. 9A) was 60-70%. Further, in test [5], the “inhibition in tumor volume compared to control” value was “caused a significant inhibition in tumor volume compared to control”. Besides, the EdU labeling entry is reported as “have a smaller effect on EdU labeling” in the test on HCT116 cells [1] and “cause significantly higher levels of EdU labeling” in the test on HT29 cells [2]. Moreover, the “spheroid growth compared to DMSO-treated spheroids” value in the test on HT29 spheroids is on record as “significantly reduces spheroid growth in a dose-dependent manner”. In the test with HCT116 spheroids, the spheroid growth result is “does not reduce spheroid growth”.
